The target of test [1] is T1, Caspase-3 (Homo sapiens, UniProt P42574).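 Also: Dose-response selectivity test against caspase-3 for candidate inhibitors of sentrin-specific proteases (SENPs).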
T1 sequence (P42574 whole entry): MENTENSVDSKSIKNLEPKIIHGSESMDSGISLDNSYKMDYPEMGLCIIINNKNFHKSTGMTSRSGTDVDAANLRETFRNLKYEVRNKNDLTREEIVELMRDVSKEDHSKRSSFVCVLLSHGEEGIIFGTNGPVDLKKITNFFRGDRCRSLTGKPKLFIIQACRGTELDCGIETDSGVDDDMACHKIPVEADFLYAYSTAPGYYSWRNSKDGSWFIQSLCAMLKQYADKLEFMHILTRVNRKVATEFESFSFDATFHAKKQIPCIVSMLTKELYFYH
It is filed as functional.

For test [2], the target named is T2, Sentrin-specific protease 7 (Homo sapiens, UniProt Q9BQF6).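 Also: Luminescence-based dose-response confirmation of ultra-high-throughput screening hits, measuring inhibition of SENP7.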
T2 sequence (Q9BQF6 whole entry): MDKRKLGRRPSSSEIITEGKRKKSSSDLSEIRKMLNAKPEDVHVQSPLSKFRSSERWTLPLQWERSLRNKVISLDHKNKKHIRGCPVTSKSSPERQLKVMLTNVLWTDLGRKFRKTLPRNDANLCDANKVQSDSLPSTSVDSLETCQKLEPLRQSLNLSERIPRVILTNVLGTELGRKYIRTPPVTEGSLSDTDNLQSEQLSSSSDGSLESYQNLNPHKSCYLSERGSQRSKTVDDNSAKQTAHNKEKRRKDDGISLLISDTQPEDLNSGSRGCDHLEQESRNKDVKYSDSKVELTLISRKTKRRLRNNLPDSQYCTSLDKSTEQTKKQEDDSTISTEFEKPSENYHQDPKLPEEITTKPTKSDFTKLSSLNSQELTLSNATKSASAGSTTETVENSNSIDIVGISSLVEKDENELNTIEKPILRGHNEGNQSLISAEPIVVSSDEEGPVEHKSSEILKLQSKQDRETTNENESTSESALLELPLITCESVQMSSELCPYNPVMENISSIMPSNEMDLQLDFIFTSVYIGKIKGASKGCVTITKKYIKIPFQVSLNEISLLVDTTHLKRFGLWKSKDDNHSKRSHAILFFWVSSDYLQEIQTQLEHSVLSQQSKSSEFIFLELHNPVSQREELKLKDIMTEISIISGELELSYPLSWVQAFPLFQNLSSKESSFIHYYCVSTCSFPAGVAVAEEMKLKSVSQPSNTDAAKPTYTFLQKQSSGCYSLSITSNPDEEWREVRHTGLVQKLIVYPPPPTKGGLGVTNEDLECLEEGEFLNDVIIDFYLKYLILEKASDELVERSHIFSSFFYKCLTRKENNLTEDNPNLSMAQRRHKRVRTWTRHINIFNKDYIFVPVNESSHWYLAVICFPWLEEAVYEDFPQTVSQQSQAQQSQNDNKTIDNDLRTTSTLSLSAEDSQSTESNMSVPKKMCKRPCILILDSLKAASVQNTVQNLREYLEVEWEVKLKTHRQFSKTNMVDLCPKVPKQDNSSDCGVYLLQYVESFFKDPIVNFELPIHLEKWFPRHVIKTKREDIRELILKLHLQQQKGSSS
It is filed as functional.

Test [3] deals with T3, Sentrin-specific protease 6 (Homo sapiens, UniProt Q9GZR1).
T3 sequence (Q9GZR1 whole entry): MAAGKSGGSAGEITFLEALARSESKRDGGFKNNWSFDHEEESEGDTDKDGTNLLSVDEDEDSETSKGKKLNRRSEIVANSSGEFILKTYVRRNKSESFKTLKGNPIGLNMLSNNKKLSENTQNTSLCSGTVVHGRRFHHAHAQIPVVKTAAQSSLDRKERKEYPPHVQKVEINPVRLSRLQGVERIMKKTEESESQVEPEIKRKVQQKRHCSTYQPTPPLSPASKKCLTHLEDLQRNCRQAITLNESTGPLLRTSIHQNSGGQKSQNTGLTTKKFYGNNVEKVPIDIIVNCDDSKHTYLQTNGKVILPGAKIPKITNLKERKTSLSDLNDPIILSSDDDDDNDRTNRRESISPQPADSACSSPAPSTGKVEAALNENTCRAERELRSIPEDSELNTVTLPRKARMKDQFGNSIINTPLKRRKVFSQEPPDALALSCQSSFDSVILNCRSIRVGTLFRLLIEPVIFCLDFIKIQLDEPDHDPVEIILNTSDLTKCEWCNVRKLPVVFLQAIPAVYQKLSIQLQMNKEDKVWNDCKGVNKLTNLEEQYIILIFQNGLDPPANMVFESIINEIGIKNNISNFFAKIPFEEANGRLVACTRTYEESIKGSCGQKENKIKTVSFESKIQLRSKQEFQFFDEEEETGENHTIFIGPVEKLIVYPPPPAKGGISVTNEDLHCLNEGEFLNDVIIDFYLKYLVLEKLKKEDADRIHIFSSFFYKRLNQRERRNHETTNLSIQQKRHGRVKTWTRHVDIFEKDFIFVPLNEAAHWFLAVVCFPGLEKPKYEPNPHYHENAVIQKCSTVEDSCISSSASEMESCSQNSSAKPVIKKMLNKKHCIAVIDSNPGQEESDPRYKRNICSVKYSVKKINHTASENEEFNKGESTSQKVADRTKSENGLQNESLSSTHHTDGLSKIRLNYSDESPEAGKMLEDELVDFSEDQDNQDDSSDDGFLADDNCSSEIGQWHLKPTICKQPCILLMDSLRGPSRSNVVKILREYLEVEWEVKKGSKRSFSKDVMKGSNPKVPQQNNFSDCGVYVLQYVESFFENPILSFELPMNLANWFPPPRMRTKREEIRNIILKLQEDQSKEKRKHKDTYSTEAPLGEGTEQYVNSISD
It is filed as functional.

Test [4] deals with T4, Sentrin-specific protease 8 (Homo sapiens, UniProt Q96LD8).
T4 sequence (Q96LD8 whole entry): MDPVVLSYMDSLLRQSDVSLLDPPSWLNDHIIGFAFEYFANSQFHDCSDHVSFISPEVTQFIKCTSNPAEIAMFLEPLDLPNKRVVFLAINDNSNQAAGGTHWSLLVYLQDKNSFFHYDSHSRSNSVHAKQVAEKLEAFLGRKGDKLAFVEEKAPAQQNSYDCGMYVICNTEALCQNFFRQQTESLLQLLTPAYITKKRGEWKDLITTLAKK
Format: functional.

The nature of test [5]: viability of uninfected HEp-2 cells – cell-based, HTS, cytotoxicity control for RSV inhibitor project, dose response (AID 2410). Format: functional. The following applies: human respiratory syncytial virus.
The target in test [6] is T5, Ubiquitin-conjugating enzyme E2 N (Homo sapiens, UniProt P61088).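 Also: Dose-response confirmation in a TR-FRET assay detecting UBC13-driven polyubiquitin chain formation, inhibition measured.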
T5 sequence (P61088 whole entry): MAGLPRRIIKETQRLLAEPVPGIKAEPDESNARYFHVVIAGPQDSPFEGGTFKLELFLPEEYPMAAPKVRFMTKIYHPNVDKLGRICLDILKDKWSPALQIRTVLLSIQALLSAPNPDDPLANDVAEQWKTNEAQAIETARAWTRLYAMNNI
Format: functional.

Test [7] deals with T6, Polyadenylate-binding protein 1 (Homo sapiens, UniProt P11940). Nature of the test: MLLE binding blockers, Cy5 peptide tracer – biochemical, fluorescence polarization, Cy5-PAM2 peptide, secondary, miRNA deadenylation inhibitor project, dose response (AID 602260). Format: functional. Particulars: read-out: IC50_Mean.
The target in test [8] is T6, Polyadenylate-binding protein 1. Nature of the test: MLLE domain peptide-binding blockers, IC50 – biochemical, fluorescence polarization, FITC-PAM2 peptide, dose response (AID 602259). Format: functional. The following applies: read-out: IC50_Mean. On the technique in general: Polarisation of emitted light reports the rotation of a fluorescent probe.
The test system of test [9] is Vero. Nature of the test: cells. It is filed as functional. The following applies: Chlorocebus sabaeus.
In test [10] the target is T7, Caspase-6 (Homo sapiens, UniProt P55212).
T7 sequence (P55212 whole entry): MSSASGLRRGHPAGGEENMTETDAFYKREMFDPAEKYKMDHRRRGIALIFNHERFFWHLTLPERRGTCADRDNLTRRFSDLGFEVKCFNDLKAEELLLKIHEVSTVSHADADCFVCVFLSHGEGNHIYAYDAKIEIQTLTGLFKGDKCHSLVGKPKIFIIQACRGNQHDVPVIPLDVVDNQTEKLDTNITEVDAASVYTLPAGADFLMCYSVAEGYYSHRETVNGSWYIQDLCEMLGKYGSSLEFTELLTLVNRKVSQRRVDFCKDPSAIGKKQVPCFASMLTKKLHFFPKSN
Nature of the test: inhibition of CASP6 peptide cleavage – biochemical, VEID-R110 fluorescence, cherry-pick, dose response (AID 720632).

A short description of test [11]: cells. It is filed as functional, cell-based.
A short description of test [12]: Trypanosoma cruzi growth suppression in host cells – NIH3T3 host cells, beta-gal luminescence, confirmation (AID 2044).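 Also: intracellular parasites grown in NIH/3T3 mouse fibroblasts as host cells; luminescent beta-galactosidase reporter signal from transgenic T. cruzi replicating inside host cells; inhibitors lower the luminescence signal.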 Format: functional, cell-based.
Test [13] can be described thus: cells. Format: functional, cell-based. The source holds these as a separate data set.
Test [14] is described as follows: NIH3T3 cell viability loss – ATP luminescence, mouse fibroblasts, counter-screen, dose response (AID 2010).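 Also: cells exposed to compound for about 90 hours before reading.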 It is filed as functional, cell-based. A general note: Counterscreens check selectivity or assay interference.
The subject of test [15] is INS1. The test can be described thus: INS-1E survival protection against cytokine death – cell-based, luminescence, retest, dose response (AID 449756).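 Also: cell death triggered by IL-1 beta plus TNF-alpha plus IFN-gamma mixture; protective hits raise ATP signal compared with cytokine alone wells.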 Particulars: Rattus norvegicus. It is filed as functional.
Test [16] can be described thus: intracellular Trypanosoma cruzi inhibitors in host cells – cell-based, plate reader, cherry-pick samples, set 3, dose response (AID 651818).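 Also: compounds incubated with infected cells for about four days.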 Format: functional.

Results on 18 compounds are retold here after ChEMBL document CHEMBL1201862, “PubChem BioAssay data set” (2004).

The structures appear in SMILES notation. Activity calls are given as the source filed them.

T6 sequence (P11940 whole entry, the tested form may be a part): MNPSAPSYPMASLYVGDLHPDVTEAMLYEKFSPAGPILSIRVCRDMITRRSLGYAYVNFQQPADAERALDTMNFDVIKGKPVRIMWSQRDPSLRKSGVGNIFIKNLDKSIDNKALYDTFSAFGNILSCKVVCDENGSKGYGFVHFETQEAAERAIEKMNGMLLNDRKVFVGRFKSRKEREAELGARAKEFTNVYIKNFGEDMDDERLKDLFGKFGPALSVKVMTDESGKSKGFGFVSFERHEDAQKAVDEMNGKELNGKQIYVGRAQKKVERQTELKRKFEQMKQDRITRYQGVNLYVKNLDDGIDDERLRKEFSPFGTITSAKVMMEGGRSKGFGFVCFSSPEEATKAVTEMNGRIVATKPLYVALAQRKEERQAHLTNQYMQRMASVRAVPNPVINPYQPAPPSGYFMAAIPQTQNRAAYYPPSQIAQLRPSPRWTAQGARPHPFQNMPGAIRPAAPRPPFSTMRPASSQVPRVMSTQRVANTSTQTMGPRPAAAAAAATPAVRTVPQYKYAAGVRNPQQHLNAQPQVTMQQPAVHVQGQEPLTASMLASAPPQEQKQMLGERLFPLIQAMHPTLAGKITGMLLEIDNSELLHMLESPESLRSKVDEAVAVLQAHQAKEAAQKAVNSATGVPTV

Regarding `Fc1cccc2sc(N3CCCCC3)nc12`, the IC50 in [1] was 10.7 µM (active); in test [2], 7.98 µM (active); in test [3] it was 30.3 µM (active); in test [4] it was 60.5 µM (active).
As for `NC(=S)N=Nc1c(O)[nH]c2cc(F)c(F)cc12`, in test [5], the CC50 (in general, the concentration that lowers cell viability or growth by half) was 40 µM (active). For the same compound, the figures for the IC50 in test [6], in test [7] and in test [8] were > 20 µM (inactive), > 66 µM (inactive) and > 66 µM (inactive), respectively.
On to `COc1nccnc1NS(=O)(=O)c1ccc(NC(=S)NC(=O)c2ccc(F)cc2)cc1`, for which the IC50 in test [7] and in test [8] was > 66 µM (inactive) in each case.
Regarding `CSC1=NC(/C=C/c2ccc(Cl)cc2Cl)=CC(C)(C)N1`, the CC50 in test [9] is 17.4 µM (active).
As for `CCSc1nc(=S)n(-c2ccccc2)c(C)c1C(C)=O`, the IC50 in test [7] and in [8] was > 66 µM (inactive) in each case.
Turning to `CCN(CC)c1ccc(C(=O)OCC(=O)Nc2sccc2C#N)cc1`, the IC50 in test [1] is 37.3 µM (active); in test [2] it was 11.6 µM (active); in [3], 11.5 µM (active); in [4], 89.1 µM (active).
Regarding `O=C(Nc1ccccc1[N+](=O)[O-])c1cc(S(=O)(=O)N2CCOCC2)cs1`, in test [9], the CC50 was 18.3 µM (active).
The same measure, in the same setting: the value for `COc1ccc(-c2nc3cnccn3c2NC(C)(C)CC(C)(C)C)cc1O` was > 25 µM (active).
For the compound `O=C(NCc1ccccc1Cl)c1ccc2[nH]cnc2c1`, the AC50 – broadly, the concentration at which the activity in the assay is half-maximal – in test [10] was 28.1 µM (active).
The same measure, in the same setting: the value for `O=C(O)c1ccccc1NS(=O)(=O)c1ccc(NN=Cc2cccc(Cl)c2)c([N+](=O)[O-])c1` was 24.5 µM (active).
Regarding `COc1ccc(CNC(=O)CN(Cc2ccc(Cl)cc2)C(=O)c2csnn2)cc1`, the IC50 in [7] and in test [8] was > 66 µM (inactive) each time.
As for `O=C(CSC1c2ccccc2-c2ccccc21)N/N=C/c1ccccc1O`, the EC50 (as a rule, the concentration at which the effect is half-maximal) in [11] was 12.9 µM (active); in [12], 2.55 µM (active); in test [13] it was > 350 µM (not active); in test [14], 9.08 µM (active). Besides, the AC50 in test [15] was 2.03 µM (active). Further, the IC50 in test [7] and in test [8] was > 66 µM (inactive) throughout.
In the case of `COc1ccc(S(=O)(=O)Nc2ccc3c(c2)CC(=O)N([C@@H](C)CO)C[C@H](C)[C@@H](CN(C)Cc2ccc(-c4ccccc4)cc2)O3)cc1`, the AC50 in test [16] is 2.07 µM (active).
The same measure, in the same setting: the value for `C[C@H]1CN([C@@H](C)CO)C(=O)Cc2cc(NC(=O)Cc3ccccc3)ccc2O[C@H]1CN(C)Cc1ccc(-c2ccccc2)cc1` was 2.79 µM (active); that for `C[C@@H]1CN([C@H](C)CO)C(=O)c2cccc(NS(=O)(=O)c3cccs3)c2O[C@@H]1CN(C)C(=O)Nc1ccc(C(F)(F)F)cc1` was 8.07 µM (active); that for `C[C@@H]1CN([C@H](C)CO)C(=O)Cc2cc(NS(=O)(=O)c3ccc(Cl)cc3)ccc2O[C@@H]1CN(C)Cc1ccc(Cl)c(Cl)c1` was 3.44 µM (active).
The same measure, in the same setting: the value for `C[C@H]1CN([C@@H](C)CO)C(=O)c2cc(NC(=O)Nc3ccc(C(F)(F)F)cc3)ccc2O[C@H]1CN(C)Cc1ccc2c(c1)OCO2` was 4.18 µM (active); that for `C[C@@H]1CN([C@H](C)CO)C(=O)c2cc(NC(=O)Nc3cccc4ccccc34)ccc2O[C@H]1CN(C)Cc1ccc(-c2ccccc2)cc1` was 2.17 µM (active).
